According to patent US10745346B2, “Agonists of protein tyrosine phosphatase SHP-1” (priority 2015, dated 2020):

Key:
[1] = target: Recombinant SHP-1 protein (Homo sapiens, UniProt P29350); test: SHP-1 phosphatase activity assay (RediPlate 96 EnzChek Tyrosine Phosphatase Assay kit); format: biochemical; details: SC derivatives at 1 μM for 2 hr; recombinant SHP-1 25 ng; control DMSO = 100; mean±SD (N=3)
Method: Effects of SC Derivatives on Phosphatase Activity in Recombinant SHP-1 RediPlate 96 EnzChek Tyrosine Phosphatase Assay kit (R-22067) was used for SHP-1 activity assay (Molecular Probes). Recombinant SHP-1 protein (25 ng) was reacted with SC derivatives at 1 μM for 2 hr. Then the SHP-1 phosphatase activity assay was performed according to the user's manual and the absorbance was measured at 465 nm. The control group was DMSO, which functioned as the solvent of the SC derivatives. The values were expressed by mean±SD (N=3).

[2] = system: PLC5 cells (a hepatocellular carcinoma cell line); test: Cytotoxicity, MTT cell viability assay; format: cell-based; details: 72 h exposure
Method: PLC5 cells (a hepatocellular carcinoma cell line) were seeded at 5×10^3 cells per well in 96-well plates. Then, cells were exposed to SC derivatives at the indicated doses for 72 h. After that, cells were incubated with MTT (1 mg/ml) (Sigma-Aldrich, St. Louis, Mo.) for 2 h at 37° C. Cell viability was then assessed by measuring the absorbance at 570 nm using a microplate reader.

Chain of Recombinant SHP-1 protein (P29350 whole entry): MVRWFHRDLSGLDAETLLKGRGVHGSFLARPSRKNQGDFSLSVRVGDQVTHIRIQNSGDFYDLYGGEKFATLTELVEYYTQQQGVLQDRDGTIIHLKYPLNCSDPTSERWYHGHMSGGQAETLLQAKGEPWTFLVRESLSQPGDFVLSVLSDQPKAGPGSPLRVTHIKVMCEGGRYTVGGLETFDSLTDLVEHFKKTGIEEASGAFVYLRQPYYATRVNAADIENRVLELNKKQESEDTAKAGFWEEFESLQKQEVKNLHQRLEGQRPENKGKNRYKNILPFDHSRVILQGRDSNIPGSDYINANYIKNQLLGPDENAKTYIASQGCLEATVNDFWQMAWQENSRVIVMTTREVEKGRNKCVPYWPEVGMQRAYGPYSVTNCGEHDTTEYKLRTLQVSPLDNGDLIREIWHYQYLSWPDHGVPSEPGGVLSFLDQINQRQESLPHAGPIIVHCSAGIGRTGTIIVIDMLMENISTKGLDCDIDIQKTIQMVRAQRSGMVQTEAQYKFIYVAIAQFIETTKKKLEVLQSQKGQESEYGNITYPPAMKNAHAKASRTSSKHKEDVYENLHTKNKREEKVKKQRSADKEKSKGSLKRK

| Compound | SHP-1 Activity (% of control) [1] | IC50 [2] [nM] |
| --- | --- | --- |
| N#Cc1ccc(Oc2ccc(NC(=O)Nc3ccc(Oc4ccc(C#N)cc4)cc3F)c(F)c2)cc1 [compound 106, 1,3-bis(4-(4-cyanophenoxy)-2-fluorophenyl)urea] | 147.13 ± 8.51 % of control | > 10000 |
| Cc1ccc(NC(=O)Nc2ccc(C)c(Oc3ccc(C#N)c(Cl)c3)c2)cc1Oc1ccc(C#N)c(Cl)c1 [compound 82, 1,3-bis(3-(3-chloro-4-cyanophenoxy)-4-methylphenyl)urea] | 92.68 ± 5.66 % of control | 4140 |
| Cc1ccc(NC(=O)Nc2ccc(Cl)c(C(F)(F)F)c2)cc1Oc1ccc(C#N)c(Br)c1 [compound 89, 1-(3-(3-bromo-4-cyanophenoxy)-4-methylphenyl)-3-(4-chloro-3-(trifluoromethyl)phenyl)urea] | 143.45 ± 15.17 % of control | 830 |
| Cc1ccc(NC(=O)Nc2ccc(Cl)c(C(F)(F)F)c2)cc1Oc1ccc(C#N)c(F)c1 [compound 88, 1-(4-chloro-3-(trifluoromethyl)phenyl)-3-(3-(4-cyano-3-fluorophenoxy)-4-methylphenyl)urea] | 100.48 ± 13.31 % of control | 1050 |
| Cc1ccc(NC(=O)Nc2ccc(Cl)c(C(F)(F)F)c2)cc1Oc1ccc(C#N)c2ccccc12 [compound 114, 1-(4-chloro-3-(trifluoromethyl)phenyl)-3-(3-((4-cyanonaphthalen-1-yl)oxy)-4-methylphenyl)urea] | 156.85 ± 6.04 % of control | 760 |
| C#Cc1cccc(NC(=O)Nc2cccc(Oc3ccc(C#N)cc3)c2)c1 [compound 65, 1-(3-(4-cyanophenoxy)phenyl)-3-(3-ethynylphenyl)urea] | 84.35 ± 22.40 % of control | 1410 |
| N#CC1=CCC(OC2=CC(NC(=O)C(=O)Nc3cccc(Oc4ccc(C#N)cc4)c3)CC=C2)C=C1 (centres unmarked) [compound 70, N^1-(3-((4-cyanocyclohexa-2,4-dien-1-yl)oxy)cyclohexa-2,4-dien-1-yl)-N^2-(3-(4-cyanophenoxy)phenyl)oxalamide] | 91.23 ± 15.95 % of control | > 10000 |
| Cc1ccc(NC(=O)Nc2ccc(F)c(C(F)(F)F)c2)cc1Oc1ccc(C#N)cc1 [compound 132, 1-(3-(4-cyanophenoxy)-4-methylphenyl)-3-(4-fluoro-3-(trifluoromethyl)phenyl)urea] | 151.59 ± 9.68 % of control | 640 |
| Cc1ccc(NC(=O)C2(C(=O)O)CC2)cc1Oc1ccc(C#N)cc1 [compound 68] | 84.36 ± 11.31 % of control | > 10000 |
| N#Cc1ccc(Oc2cccc(NC(=O)Nc3ccc(Cl)c(C(F)(F)F)c3)c2)cc1Cl [compound 79, 1-(4-chloro-3-(trifluoromethyl)phenyl)-3-(3-(3-chloro-4-cyanophenoxy)phenyl)urea] | 112.25 ± 0.60 % of control | 820 |
| Cc1ccc(NC(=O)Nc2ccc(C)c(Oc3ccc(C#N)c4ccccc34)c2)cc1Oc1ccc(C#N)c2ccccc12 [compound 113, 1,3-bis(3-((4-cyanonaphthalen-1-yl)oxy)-4-methylphenyl)urea] | 153.49 ± 13.55 % of control | > 10000 |
| N#Cc1ccc(Oc2ccc(Cl)c(NC(=O)Nc3cc(Oc4ccc(C#N)cc4)ccc3Cl)c2)cc1 [compound 91, 1,3-bis(2-chloro-5-(4-cyanophenoxy)phenyl)urea] | 99.99 ± 4.52 % of control | > 10000 |
| O=C(Nc1ccc(Cl)c(C(F)(F)F)c1)Nc1ccc(Cl)c(C(F)(F)F)c1 [compound 78, 1,3-bis(4-chloro-3-(trifluoromethyl)phenyl)urea] | 113.65 ± 13.93 % of control | > 10000 |
| C#Cc1cccc(NC(=O)Nc2ccc(C)c(Oc3ccc(C#N)cc3)c2)c1 [compound 66, 1-(3-(4-cyanophenoxy)-4-methylphenyl)-3-(3-ethynylphenyl)urea] | 93.26 ± 9.30 % of control | > 10000 |
| N#Cc1ccc(Oc2ccc3cccc(NC(=O)C4(C(=O)O)CC4)c3c2)cc1 [compound 75, 1-((7-(4-cyanophenoxy)naphthalen-1-yl)carbamoyl)cyclopropane carboxylic acid] | 111.30 ± 9.50 % of control | > 10000 |
| N#Cc1ccc(Oc2cc(NC(=O)Nc3ccc(Cl)c(C(F)(F)F)c3)ccc2F)cc1 [compound 111, 1-(4-chloro-3-(trifluoromethyl)phenyl)-3-(3-(4-cyanophenoxy)-4-fluorophenyl)urea] | 156.55 ± 5.99 % of control | 240 |

Second part, led by results:

| SHP-1 Activity (% of control) [1] | Compound | IC50 [2] [nM] |
| --- | --- | --- |
| 139.68 ± 6.63 % of control | N#CCc1ccc(NC(=O)Nc2cc(Oc3ccc(C#N)cc3)ccc2F)cc1 [compound 146, 1-(4-(cyanomethyl)phenyl)-3-(5-(4-cyanophenoxy)-2-fluorophenyl)urea] | 2590 |
| 273.26 ± 86.35 % of control | N#Cc1ccc(Oc2ccc(Cl)c(NC(=O)Nc3cc(C(F)(F)F)cc(C(F)(F)F)c3)c2)cc1 [compound 141, 1-(3,5-bis(trifluoromethyl)phenyl)-3-(2-chloro-5-(4-cyanophenoxy)phenyl) urea] | 280 |
| 140.58 ± 11.39 % of control | C#Cc1cccc(NC(=O)N2CCOc3ccc(Oc4ccc(C#N)cc4)cc32)c1 [compound 161, 6-(4-cyanophenoxy)-N-(3-ethynylphenyl)-2H-benzo[b][1,4]oxazine-4(3H)-carboxamide] | > 10000 |
| 169.27 ± 1.19 % of control | N#Cc1ccc(Oc2ccc3c(c2)OCCN3C(=O)Nc2ccc(Cl)c(C(F)(F)F)c2)cc1 [compound 165, N-(4-chloro-3-(trifluoromethyl)phenyl)-7-(4-cyanophenoxy)-2H-benzo[b][1,4]oxazine-4(3H)-carboxamide] | > 10000 |
| 106.88 ± 3.58 % of control | N#Cc1ccc(Oc2cc(NC(=O)Nc3ccc(F)c(C(F)(F)F)c3)ccc2Cl)cc1Cl [compound 181, 1-(4-chloro-3-(3-chloro-4-cyanophenoxy)phenyl)-3-(4-fluoro-3-(trifluoromethyl)phenyl)urea] | 930 |
| 196.54 ± 22.4 % of control | N#Cc1ccc(Oc2cc(NC(=O)Nc3cccc(C(F)(F)F)c3)ccc2Cl)cc1 [compound 138, 1-(4-chloro-3-(4-cyanophenoxy)phenyl)-3-(3-(trifluoromethyl)phenyl)urea] | 570 |
| 353.11 ± 30.81 % of control | N#Cc1ccc(Oc2ccc(F)c(NC(=O)Nc3cc(C(F)(F)F)cc(C(F)(F)F)c3)c2)cn1 [compound 183, 1-(3,5-bis(trifluoromethyl)phenyl)-3-(5-((6-cyanopyridin-3-yl)oxy)-2-fluorophenyl)urea] | 530 |
| 253.18 ± 26.17 % of control | Cc1ccc(NC(=O)Nc2ccc(Cl)c(C(F)(F)F)c2)cc1Oc1ccc(C#N)cc1 [compound 133, 1-(4-chloro-3-(trifluoromethyl)phenyl)-3-(3-(4-cyanophenoxy)-4-methylphenyl)urea] | 440 |
| 116.47 ± 6.60 % of control | N#CCc1ccc(NC(=O)N2CCOc3ccc(Oc4ccc(C#N)cc4)cc32)cc1 [compound 160, N-(4-(cyanomethyl)phenyl)-6-(4-cyanophenoxy)-2H-benzo[b][1,4]oxazine-4(3H)-carboxamide] | 5130 |
| 110.75 ± 1.18 % of control | N#CCc1ccc(Oc2ccc(NC(=O)Nc3cccc(C(F)(F)F)c3)cc2)cc1 [compound 173, 1-(4-(4-(cyanomethyl)phenoxy)phenyl)-3-(3-(trifluoromethyl)phenyl)urea] | > 10000 |
| 136.00 ± 9.09 % of control | N#Cc1ccc(Oc2cc(NC(=O)Nc3cccc(C(F)(F)F)c3)ccc2F)cc1 [compound 151, 1-(3-(4-cyanophenoxy)-4-fluorophenyl)-3-(3-(trifluoromethyl)phenyl)urea] | 590 |
| 249.66 ± 5.81 % of control | N#Cc1ccc(Oc2ccc(Cl)c(NC(=O)Nc3ccc(Cl)c(C(F)(F)F)c3)c2)cc1 [compound 142, 1-(4-chloro-3-(trifluoromethyl)phenyl)-3-(2-chloro-5-(4-cyanophenoxy)phenyl)urea] | 450 |
| 112.57 ± 3.69 % of control | Cc1cc(Oc2cc(NC(=O)Nc3cc(C(F)(F)F)cc(C(F)(F)F)c3)ccc2Cl)ccc1C#N [compound 176, 1-(3,5-bis(trifluoromethyl)phenyl)-3-(4-chloro-3-(4-cyano-3-methylphenoxy)phenyl)urea] | 650 |
| 280.62 ± 16.62 % of control | N#Cc1ccc(Oc2cc(NC(=O)Nc3ccc(Cl)c(C(F)(F)F)c3)ccc2Cl)cc1 [compound 139, 1-(4-chloro-3-(4-cyanophenoxy)phenyl)-3-(4-chloro-3-(trifluoromethyl)phenyl)urea] | 310 |
| 51.89 ± 8.16 % of control | N#Cc1ccc(Oc2ccc3c(c2)OCCN3C(=O)Nc2ccc(F)c(C(F)(F)F)c2)cc1 [compound 166, 7-(4-cyanophenoxy)-N-(4-fluoro-3-(trifluoromethyl)phenyl)-2H-benzo[b][1,4]oxazine-4(3H)-carboxamide] | 1320 |
